Measurements as given in PubChem BioAssay (NCI).
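Interpolation was linear, between the two tested concentrations surrounding the appropriate level; five concentrations were tested over 48 hours in 96-well plates. TGI: total growth inhibition.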

How the values were obtained:
Test in all cases: DTP human tumour cell line panel, 48 h
HCT-15 colon = system: HCT-15 colon
OVCAR-3 ovarian = system: OVCAR-3 ovarian
K-562 leukemia = system: K-562 leukemia
LOX IMVI melanoma = system: LOX IMVI melanoma
UACC-62 melanoma = system: UACC-62 melanoma
SF-539 CNS = system: SF-539 CNS
A549 NSCLC = system: A549 NSCLC
SK-MEL-28 melanoma = system: SK-MEL-28 melanoma
EKVX NSCLC = system: EKVX NSCLC
SNB-19 CNS = system: SNB-19 CNS
MDA-MB-231 breast = system: MDA-MB-231 breast
OVCAR-8 ovarian = system: OVCAR-8 ovarian
MDA-N = system: MDA-N

SMILES	TGI (HCT-15 colon) [µM]	TGI (OVCAR-3 ovarian) [µM]	TGI (K-562 leukemia) [µM]	TGI (LOX IMVI melanoma) [µM]	TGI (UACC-62 melanoma) [µM]	TGI (SF-539 CNS) [µM]	TGI (A549 NSCLC) [µM]	TGI (SK-MEL-28 melanoma) [µM]	TGI (EKVX NSCLC) [µM]	TGI (SNB-19 CNS) [µM]	TGI (MDA-MB-231 breast) [µM]	TGI (OVCAR-8 ovarian) [µM]	TGI (MDA-N) [µM]
C/C(C=O)=N\Nc1cc(C)c2ccccc2n1	26.3	29.1	46.6	29.4	28.2	28.8	43	39.1	33.7	52	32.3	34.8	
CC1=NC(=Cc2ccc(Cl)cc2)C(=O)N1n1c(-c2ccccc2)nc2ccccc2c1=O	> 100		> 100	> 100	> 100	> 100	> 100	> 100	> 100	> 100	> 100	> 100	> 100
COc1ccc2oc(=N)c(C(N)=S)cc2c1	36.7		> 100	33	34	51.7	> 100	> 100	95.7	> 100	54.1	38.9	67.5
N#C/C(=C\c1ccc(Cl)cc1)c1nc2ccccc2c(=O)[nH]1	> 100		> 100	> 100	> 100	> 100	> 100	> 100	> 100	> 100	> 100	> 100	> 100
CCCOc1ccc(/C=C/c2cc(OC)c(OC)c(OC)c2)cc1	15.1		> 100	> 50.5	> 100	0.754	> 100	> 100	> 100	> 100		22.3	
O=S(=O)(CC1=NC2C=CC=CC2N=C1)NCc1ccccc1 (configuration not stated)	> 100	> 100	> 100	> 100	> 100	> 100	> 100	> 100	> 100	> 100		> 100	
c1ccc(C2=NN(c3ccccc3)C3(S2)SC(c2ccccc2)(c2ccccc2)c2ccccc23)cc1 (configuration not stated)	> 100	> 100	> 100	> 100	> 100	> 100	> 100	> 100	> 100	> 100		> 100	
CSC1=N/C(=C\c2cccs2)C(=O)N1CN1CCCCC1	> 100	> 100	> 100	75.6	> 100		> 100	> 100	> 100		> 100	> 100	> 100
CC(=O)OCC(OC(C)=O)C(OC(C)=O)C(/C=N/N(C(C)=O)S(=O)(=O)c1ccc(/C=C2\NC(=O)NC2=O)cc1)OC(C)=O (configuration not stated)	> 100	> 100	> 100		> 100	> 100	> 100		> 100	> 100	> 100	> 100	> 100
COC(=O)n1c(=O)nc2c3c(ncn21)Oc1c(c(-c2ccccc2)nn1-c1ccccc1)C3c1ccc(Cl)cc1 (configuration not stated)	2.95	2.72	3.37	2.79	3.6	3.14	3.15	3.18		3.13	3.05		3.01
COC(=O)c1c/c(=N\NC(=O)CC(=O)Nc2ccccc2Cl)c2ccccc2o1	> 100	> 100	> 100	> 100	> 100	> 100	> 100	> 100	> 100	> 100		> 100	
Oc1cn(-c2ccc(Cl)cc2)nc1-c1nnc(Nc2ccccc2)o1	28	> 100			30.6	30.8	43.3	34.9	72.8	50.5	27.4	43.6	
Cc1ccc2sc3cc(=O)cc(C)c-3nc2c1	> 100	> 100	> 100		36	> 100	> 100	> 100	> 100	> 100		> 100	
COc1cc(C2c3cccc4cccc(c34)C3CCC(=O)N32)cc(O)c1O (configuration not stated)	> 50	> 50	40.3		> 50	> 50	> 50	> 50	> 50	> 50		> 50	> 50
CSc1nc(C)cc(Nc2ccc(O)c(CN3CCCCC3)c2)n1	> 100	> 100	> 100	> 100	> 100	> 100	> 100	79.6	88.7	> 100		> 100	75.4
CCOC(=O)CCc1c(C(=O)OCC)[nH]c(/C=C2/NC(=O)C(C)=C2CC)c1C	15.3	16.1	12.9	21	19.7	44.4	> 100	30.2		37.2	48.3	> 100	26.6
O=C(Nc1ccc(C(F)(F)F)cc1[N+](=O)[O-])C(=O)C(C(=O)c1ccc2ccccc2c1)C1OC(=O)c2ccccc21 (configuration not stated)	51.4	> 51	47.8	24.1	20.4	5.03	> 71.3	18	21.2	22.5		19.8	
CCc1cc(Cc2cc(CC)c(NC(=O)C3=CC(=O)CC(c4ccc(OC)cc4)O3)c(CC)c2Cl)c(Cl)c(CC)c1NC(=O)C1=CC(=O)CC(c2ccc(OC)cc2)O1 (configuration not stated)	53.7	38.2	> 100	32.4	63.2	38.9	43.8	41.4	> 100	42.7		90.5	
CC(=O)OC1[C@H]2c3cc4c(cc3CN3CCC(C[C@@H]1OC(C)=O)C23)OCO4 (some centres not stated)	> 75	> 75	> 75	> 75	> 75	> 75	> 75	> 75	> 75	> 75		> 75	
